This is an account of results in patent US20050214738A1, “Conditional allele system” (priority 2003, published 2005).

Where a SMILES comes first, the peptide text is derived from it. The star is where a group is joined. Cbz = O=C(OCc1ccccc1)*

One data set concerns mutant FRBs. Briefly: SeAP transcriptional switch assay, panel of FRB mutants at 2095, 2098, 2101. It counts as cell-based, human. On the procedure:
All FRB mutants were prepared by the Quikchange mutagenesis method (Stratagene) using protocols provided by the manufacturer. Briefly, PCR reactions containing the parent plasmid pBJ5-FRB-VP16-HA or pBJ5-FRB*-VP16-HA and overlapping oligonucleotides containing the relevant base changes were performed with Pfu polymerase (Stratagene, San Diego, Calif.). PCR reactions were digested with the methylation sensitive restriction endonuclease Dpn1 to eliminate the parent plasmid and the reaction was transformed in XL10-Gold Ultracompetent E. coli (Stratagene).
Electroporation details are available upon request. Cells were immediately aliquoted to 2 or 3×96 well plates with flat bottoms. […] Data was analysed with Softmax Pro (Molecular Devices), Microsoft Excel and Prism 3 (GraphPad Software).

In the next data set the target is GSK-3βFRB* (UniProt P26883+P42345, K2095P/T2098L/W2101F). Description: Inducible stabilization of GSK-3βFRB* in knock-in MEFs (Western blot). It counts as cell-based, mouse. Also on record: The minimal FRB domain comprises amino acids 2025-2114 of human mTor; endogenous in cells; host or cells: MEFs from GSK-3β^FRB* knock-in mice (fusion expressed from the targeted endogenous locus). The settings on record: heterozygous MEFs; for GSK-3βFRB* stability when stabilization is reversed with FK506 in presence of protease inhibitor: inhibitor added 30 minutes before FK506, 9 h. Here is the method:
MEFs cell lines were prepared from E14.5-E16.5 embryos of indicated genotypes by eviscerating the embryos in HBSS, treating the remaining tissue with 0.2% collagenase and trypsin, and plating the cells in DMEM containing 10% FCS, antibiotics, and 0.1 mM β-mercaptoethanol. Once established, the MEFs were cultured using standard techniques and treated with various small molecules as indicated.
Western Blot analysis was carried out using cell lysates prepared in RIPA buffer (10 mM Tris pH 7.2, 150 mM NaCl, 0.1% SDS, 1% Triton X-100, 1% deoxycholate, 5 mM EDTA, protease inhibitor cocktail (Invitrogen Life Technologies)) and then separated using standard SDS/PAGE before being transferred to PVDF (Millipore) using standard Western blotting procedures. The anti-GSK-3β antibody, used at 1:2500, the anti-HSP-90 antibody, 1:2500, and the anti-FKBP12 antibody, 1:2500, were purchased from BD Transduction Labs. The anti-β-catenin antibody, 1:2000, and anti-HSP-70 antibody, 1:1000 were purchased from Santa Cruz Biotechnology. […] In all cases, Western blots were incubated overnight with the appropriate primary antibodies in TBST (10 mM Tris 8.0, 150 mM NaCl, 0.1% Tween-20) containing 10% dry milk, and then washed 3 times with TBST. The blots were subsequently incubated for 30 minutes with HRP-conjugated secondary antibodies from Jackson Immunoresearch, washed 3 more times with TBST, and then developed using standard ECL reagents (Amersham Biosciences) and Kodak XAR film.
Background: Immunoblotting shows a protein as a band on a membrane.

Data set [1] deals with T1, FRB*Pax6 (UniProt P26883+P42345, K2095P/T2098L/W2101F).
T1 construct: The minimal FRB domain comprises amino acids 2025-2114 of human mTor; from tissue; host or cells: e13.5 cortical neural cultures (A14) and cultured whole embryos (A15) from Pax6^FRB* knock-in mice; fusion expressed from the targeted endogenous locus
T1 sequence (P42345 2025-2114 K2095P/T2098L/W2101F): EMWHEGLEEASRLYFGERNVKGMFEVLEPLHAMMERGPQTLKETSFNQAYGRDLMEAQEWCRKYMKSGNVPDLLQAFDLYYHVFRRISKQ
T1 sequence (P26883 2-108): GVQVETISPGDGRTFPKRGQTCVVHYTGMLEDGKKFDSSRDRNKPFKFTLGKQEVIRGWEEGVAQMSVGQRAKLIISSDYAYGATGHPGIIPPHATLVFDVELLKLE
Briefly: Stabilization of FRB*Pax6 in cortical neural cultures (Western blot). It counts as cell-based, mouse. As to conditions: replacement of MaRap after 36 hours; 500 nM after 200 nM MaRap. An excerpt: e13.5 embryos were harvested from a Pax6^FRB*/+ intercross and cortical hemispheres isolated from individuals identified by eye and craniofacial morphology and later confirmed by genotype specific PCR. Pia were removed and neocortex dissected from […] in Hank's balanced salt solution (HBSS). Tissue was minced roughly and placed in centrifuge tubes containing HBSS+20% foetal calf serum. Tissue pieces were allowed to settle and the media was replaced first with HBSS+serum then HBSS alone. The tissue was incubated with 0.1% trypsin+2 mM EDTA 10 minutes at 37° C. then the reaction stopped with HBSS+serum. Cells were triturated to a suspension and plated on 24 well plates coated with matrigel in DMEM (high glucose) supplemented with FCS (5%), N2 (GIBCO) and antibiotics.
Extracts were prepared in RIPA buffer, protein quantified by Bradford Assay (Biorad) and 10 μg of total protein resolved by SDS-PAGE, transferred to PVDF (Millipore) filters and Pax6 or HSP90 identified with specific antibodies (1:1000, Covance and 1:2500 Transduction Laboratories, respectively) incubated 1 hour in TBS+10% nonfat milk. Secondary conjugated to horse radish peroxidase were purchased from Jackson immunochemicals and blots were developed by chemiluminescence (Amersham).

In data set [2] the target is T1, FRB*Pax6. Briefly: Whole embryo culture, inducible stabilization of FRB*Pax6. Set-up: species or system mouse. Here is the method:
Uterine horns were removed from sacrificed mothers to a petri dish containing Hank's Balanced Salt Solution (HBSS), fat was removed and the uterus cut up to isolate embryos. Individual deciduum were carefully removed from the uterus by carefully pulling apart the muscular layers in a fresh petri dish containing HBSS (sometimes supplemented with 2 mg/mL glucose) under a dissecting microscope. Embryos were removed by cutting along the lateral axis of the deciduum with fine forceps taking care not to puncture the embryonic membranes and teasing off the decidual layers overlying the embryo. Embryos were then separated from the remaining decidua at the ectoplacental cone or primitive placenta (depending on the age of the embryo).
Reichert's membrane was grasped without the underlying visceral yolk sac, carefully torn away from the embryo and trimmed back to the placenta without ripping the yolk sac. […] The bottle rotated slowly in a roller bottle chamber at 37° C. Drugs were added directly to the culture media at the commencement of the culture.
Embryos were fixed overnight in 4% paraformaldehyde/PBS then dehydrated through a staged ethanol series. Endogenous peroxidases were inactivated with 5% H2O2 for 4 hours in ethanol and the embryos were rehydrated. […] Embryos were washed in block 6 hours with 1 hour changes and incubated overnight at 4° C. with […] anti-mouse secondary. Embryos were washed with PBS+0.1% Triton X-100 4 times for 1 hour and developed with the DAB peroxidase kit from Vector laboratories.
Embryos were protected with a staged series to 30% sucrose in PBS after fixation in 4% PFA (60 minutes to overnight at 4° C.). Protected embryos were embedded in OCT (VWR) frozen and sectioned on a Leica cryostat to 10 μm. Thin sections were stained according to standard protocols (obtained upon request). Secondary antibodies were purchased from Molecular Probes (Eugene, Oreg.) and primary antibodies to neurofilament, Lim3, Nkx2.2, Pax6, En1, Isl1 were obtained from Dev. Studies. Additional antibodies were from Covance, Zymed or a generous gift of Tadashi Nomura and Noriko Osumi (Sendai, Japan). Immunofluorescence was visualized by confocal microscopy.

A further data set has as its system embryos. Description: Overt effects on mother and embryos after IP injection of pregnant mice. The data set is classed as in vivo, mouse. As to conditions: 10 mg/kg/day, similarly injected. On the procedure: GSK-3β^+/FRB* mice were intercrossed and the date of vaginal plug observation was set as E0.5. At E9.5, the stage of embryonic development was confirmed by ultrasonography (Chang, C. P. et al. “Sonographic Staging of the Developmental Status of Mouse Embryos in Utero.” (2003) Published in Genesis 36, 7-11) and mice were weighed. Drug administration commenced at E10.0. […] 100 μL was immediately injected intraperitoneally (IP) to pregnant females with injections repeated twice more at 12 hour intervals to E11.5 when mice were sacrificed, and embryos and organs were dissected and frozen in […]. Tissues anterior to the embryonic forelimbs of individual embryos were used for preparation of protein extracts with the remainder used to determine the concentration of drug and for genotyping.

In another data set the target is T2, FRB (Homo sapiens, UniProt P42345+P62942).
T2 construct: The minimal FRB domain comprises amino acids 2025-2114 of human mTor; expressed in transfected cells; host or cells: COS-1 cells, electroporated with pBJ5-FRBVP, pBJ5-GF3E and pG5IL2SX
T2 sequence (P42345 2025-2114): as the sequence (P42345 2025-2114 K2095P/T2098L/W2101F) above, with P71K, L74T, F77W counted along it
T2 sequence (P62942 whole entry, the tested form may be a part): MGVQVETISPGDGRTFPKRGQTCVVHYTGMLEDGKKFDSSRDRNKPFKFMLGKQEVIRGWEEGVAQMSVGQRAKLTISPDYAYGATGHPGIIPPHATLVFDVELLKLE
Description: SeAP reporter assay, dimerization of FRB-VP16 to FKBP3-GAL4DBD in COS-1 cells. It counts as cell-based. As to conditions: wild-type FRB(KTW)-VP16; ±95% confidence intervals. An excerpt: (§1) Transcription activation by recruitment of chimeric transcriptional activation and DNA binding domains is described. COS-1 cells were electroporated with […] each of the following expression plasmids (Ho, S. N., Biggar, S. R., Spencer, D. M., Schreiber, S. L., and Crabtree, G. R. “Dimeric ligands define a role for transcriptional activation domains in reinitiation.” (1996) Nature 382, 822-826): pG5IL2SX (drives transcription of bacterial secreted alkaline phosphatase (SeAP) through GAL4 DNA binding […] elements), pBJ5-GF3E (which expresses the GAL4 DNA binding domain fused to three copies of human FKBP12), and pBJ5-FRBVP. (which expresses a FRB fusion with the Herpes Simplex Virus VP16 Activation domain) A FRB*-VP16 fusion protein which consists of modified FRB protein fused to the VP16 activation domain was also used selectively. Transfected cells were distributed equally to 96 well plates and were incubated at 37° C. for 24 to 36 hours before media was supplemented with drug in a dilution curve in which each point is represented in quadruplicate. Cells were incubated at 37° C. for an additional 24 hours followed by a 2-hour treatment at 65° C. to inactivate endogenous phosphatases. Each well was supplemented with 100μL of 1 mM methylumbelliferylphosphate dissolved in 2 M diethanolamine buffered to pH 10.0 with carbonate and incubated at 37° C. for 16 hours. Fluorescence was measured with a Fluoroscan (ICN) plate reader at 355 nm transmission and 455 nm emission using Deltasoft software.
(§2) Drug efficacy was determined in a three-plasmid transcriptional switch reporter assay. ˜106 COS1 cells were coelectroporated with 2 μg of the DNA binding construct pBJ5-Gal4-FKBP(3), 2 μg pBJ5-VP16 (or the relevant mutant FRB) and 2 μg of the Gal4-SeAP reporter. Electroporation details are available upon request. […] SeAP activity was measured by fluorescence with a Spectamax M2 fluorometer (Molecular Devices, Sunnyvale, Calif.) with transmission set at 355 nm and emmission set at 460 nm. Data was analysed with Softmax Pro (Molecular Devices), Microsoft Excel and Prism 3 (GraphPad Software).
Background: Reporter assays use an easily measured gene product as a stand-in for the process of interest.

The target in another data set is T3, FRB* (Homo sapiens, UniProt P42345+P62942, K2095P/T2098L/W2101F).
T3 construct: The minimal FRB domain comprises amino acids 2025-2114 of human mTor; expressed in transfected cells; host or cells: COS-1 cells
T3 sequence (P42345 2025-2114 K2095P/T2098L/W2101F): as the sequence (P42345 2025-2114 K2095P/T2098L/W2101F) above
T3 sequence (P62942 whole entry, the tested form may be a part): as the sequence (P62942 whole entry, the tested form may be a part) above
Briefly: SeAP reporter assay, dimerization of FRB*-VP16 to FKBP3-GAL4DBD in COS-1 cells. It counts as cell-based. The settings on record: FRB*(PLF)-VP16; ±95% confidence intervals.
Excerpt: as §1, §2

GSK-3βFRB*, sequence (P42345 2025-2114 K2095P/T2098L/W2101F): as the sequence (P42345 2025-2114 K2095P/T2098L/W2101F) above
GSK-3βFRB*, sequence (P26883 2-108): as the sequence (P26883 2-108) above

`CO[C@H]1[C@@H](O)[C@H](C)C[C@H](C)/C=C/C=C/C=C(\C)[C@@H](c2c[nH]c3c(C)cccc23)C[C@@H]2CC[C@@H](C)[C@@](O)(O2)C(=O)C(=O)N2CCCC[C@H]2C(=O)O[C@H]([C@H](C)C[C@@H]2CC[C@@H](O)[C@H](OC)C2)C[C@H](O)[C@H](C)/C=C(\C)[C@H]1O` [C16-(S)iRap, C16-(S)7-methylindolerapamycin, reference compound]: the “effectiveness against all mutants relative to C16-BSrap” value in the data set on mutant FRBs (all mutants) was “significantly less effective than C16-BSrap”.

For `CCOC(=O)[C@H]1O[C@@H]1C(=O)N[C@@H](CC(C)C)C(=O)NCCC(C)C` [E-64D, reference compound], on GSK-3βFRB*, the “GSK-3βFRB* stability when stabilization is reversed with FK506 in presence of protease inhibitor” value (from here on “GSK-3βFRB* stability … of protease inhibitor”) is recorded as “did not protect”.

Consider `CO[C@H]1C[C@@H](C)C/C(C)=C/[C@@H](CCOC(=O)NCc2ccccc2)C(=O)C[C@H](O)[C@@H](C)[C@@H](/C(C)=C/[C@@H]2CC[C@@H](O)[C@H](OC)C2)OC(=O)[C@@H]2CCCCN2C(=O)C(=O)[C@]2(O)O[C@H]1[C@@H](OC)C[C@H]2C` [FK506M, reference compound], for which the “time for stabilized FRB*Pax6 levels to drop to the basal level” value at FRB*Pax6 [1] is at most 6 h. In addition, the “differentiation of Lim3-positive somatic motor neurons after transient stabilization” value on FRB*Pax6 [2] (24 hours MaRap then replacement with FK506M) was “fail to differentiate”. Also, the “FRB*Pax6 immunoreactivity after transient stabilization” value at FRB*Pax6 [2] (24 hours MaRap then replacement with FK506M (5 μM) 24 hours, e9.5 embryos) is given as “loss of most of the FRB*Pax6 immunoreactivity”. Besides, on GSK-3βFRB* (300 nM after 100 nM C20-MaRap 36 h), the “time for GSK-3βFRB* to return to steady state low levels” value was “less than 9 hours”.

For the molecule `CC(C)C[C@@H](C=O)NC(=O)[C@H](CC(C)C)NC(=O)[C@H](CC(C)C)NC(=O)OCc1ccccc1` [MG132, reference compound] (Cbz-Leu-Leu-Leu-aldehyde), the “GSK-3βFRB* stability … of protease inhibitor” value at GSK-3βFRB* was “remained stable”.

As for `CC(=O)N[C@@H](CSC(=O)[C@]1([C@@H](O)C(C)C)NC(=O)[C@H](C)[C@@H]1O)C(=O)O` [lactacystin, reference compound], the “GSK-3βFRB* stability … of protease inhibitor” value on GSK-3βFRB* is “remained stable”.

`CO[C@H]1C[C@@H]2CC[C@@H](C)[C@@](O)(O2)C(=O)C(=O)N2CCCC[C@H]2C(=O)O[C@H]([C@H](C)C[C@@H]2CC[C@@H](O)[C@H](OC)C2)CC(=O)[C@H](C)/C=C(\C)[C@@H](O)[C@@H](OC)C(=O)[C@H](C)C[C@H](C)/C=C/C=C/C=C/1C` [rapamycin, reference compound]: the effect on embryos result in the data set on embryos is listed as “produced “flat-top” embryos”.

The EC50 is the concentration needed to bring the measured effect to its halfway point. Higher therefore signals weaker potency. As to C16-(R)-methallylrapamycin [C16-MaRap], the EC50 at FRB stood at 273 ± 13.5 nM; on FRB*, 15.9 ± 1.5 nM.

As to “C16-(S)-3-Methylindole rapamycin [C16-iRap]”, the “binding to FRB mutants with Trp 2101 Phe substitution, Leu at 2098” value in the data set on mutant FRBs (Phe at 2101, Leu at 2098) is “fully rescues drug binding”. The “binding to FRB mutants with Trp 2101 Phe substitution, Thr at 2098” value with mutant FRBs (Phe at 2101, Thr at 2098) is “does not bind”.
